Laboratory results: patent US8278267B2 (Amylin Pharmaceuticals, LLC, priority 2005, dated 2012)

Assays:
[1] = Pramlintide on satiation and binge eating (Binge Eating Scale), single-blind placebo-controlled study in obese subjects; format: in vivo, human
Protocol: The ability of the amylin agonist pramlintide to control or influence eating behavior was examined in human subjects. For the assessment, 24 hour-food intake (FI, ad-libitum meals), weight, feelings of hunger and fullness, and binge-eating (Binge Eating Scale, BES) were measured in a single-blind, placebo-controlled study. Obese subjects without eating disorders (50/50% female/male; BMI 35.61±3.98 kg/m^2, mean±SD) were randomized to six weeks of treatment with pramlintide or placebo. Pramlintide (180 μg) was administered subcutaneously three times per day (TID) prior to meals for 6 weeks and no lifestyle intervention was provided (TID evaluable N=59, placebo evaluable N=25). […] A follow-up evaluation of the subjects was performed four weeks after cessation of the treatment. In addition to the measurement of food intake and weight, subjects were also assessed for the feelings of hunger and fullness over a 12-hour observation period on the day before treatment, the first day of treatment, and on Day 43. During the study, subjects were categorized by binge-eating severity as mild, moderate, or severe based on total BES scores.

[2] = Pramlintide on weight and anthropometric parameters, 16-week double-blind placebo-controlled study in obese subjects; format: in vivo, human
Protocol: In a randomized, double-blind, placebo-controlled study, changes in body weight and anthropometric parameters, as well as indicators of glycemic control (e.g., HbA1c), serum lipids and glucose tolerance, were assessed in response to pramlintide administration to obese (BMI≧30 kg/m^2 to ≦50 kg/m^2) non-diabetic individuals and obese individuals with non-insulin treated type 2 diabetes mellitus.

[3] = Adsorption onto glass container in liquid form; format: physicochemical
[4] = human trials; cited from earlier work
[5] = Effect of amylin on sucrose food preference, sugar withdrawal and restraint stress; format: in vivo, rat
Protocol: The ability of amylin to modify food preference was examined in an animal model. Male, Sprague-Dawley® rats were submitted to a sugar withdrawal paradigm and observed for effects of stress on sugar intake. […] All rats were provided with ad libitum access to standard chow, water, and a 30% sucrose drink. Subsequently, the sucrose drink was removed and half of the rats were subjected, daily, to 3 h of mild restraint stress for 3 successive days. After 3 days, sucrose was provided and its daily average consumption was measured over 4 days. Chow intake was also measured over the 3 days of withdrawal and stress and over the following 4 days when sucrose was re-introduced. No restraint was applied during the 4 days of sucrose re-introduction. Results of this assay are shown in FIG. 1(A-D) where * is P<0.05 by ANOVA and Fisher LSD post-hoc analyses.

[6] = Effect of amylin on high fat food preference, 11-week osmotic pump treatment; format: in vivo, rat
Protocol: The ability of amylin to modify food preference was examined in an animal model. […] Animals had access to both low fat chow (6% fat kcal, 54% cornstarch kcal; #7012, Harlan Teklad, Madison, Wis.) and high fat chow (“palatable chow”) (58% fat kcal and 26% sucrose kcal; #D12311, Research Diets, New Brunswick, N.J.). Food intake and body weight were measured weekly. Just prior to treatment, and at the end of treatment, the amount of fat and lean tissue (expressed as g of tissue per 100 g of body weight) was measured via MRI (Echo MRI for rats, EchoMRI, Houston, Tex.).
Energy expenditure was assessed using an Oxymax animal monitoring system (Columbus Instruments, Columbus, Ohio) to measure oxygen consumption and carbon dioxide generation over time. From these measurements, heat (in kcal) was calculated and energy expenditure assessed.

[7] = Effect of amylin on body composition in DIO prone rats, 14 days of treatment then washout; format: in vivo, rat
Protocol: Diet-induced obesity (DIO) in the in the Sprague-Dawley rat is a valuable model for the study of obesity and regulation of energy homeostasis. […] All rats were housed individually in shoebox cages at 22° C. in a 12/12-hour light dark cycle. Amylin was administered by subcutaneous osmotic mini-pump (Durect Corp, Calif.). […] On day 14, mini-pumps were removed and replaced with pumps containing vehicle. For body composition, rats were scanned in a specialized rodent NMR machine (Echo Medical Systems) prior to drug treatment, and at the conclusion of the experiment, which enabled the calculation of percent changes in fat and lean composition (e.g., % body fat after treatment−% body fat at baseline=change in % body fat).

[8] = Combination therapy amylin + sibutramine in DIO prone rats; format: in vivo, rat; conditions: two weeks
Protocol: In-bred DIO prone rats were obtained from Charles Rivers Labs. These rats were developed from a line of Crl:CD®(SD)BR rats that are prone to become obese on a diet relatively high in fat and energy (Levin, 1997). The rats were housed individually in shoebox cages at 22° C. in a 12/12-hour light dark cycle. […] At the end of the fattening period they typically have a mean body weight of 500 g. Rats were then divided into treatment groups and implanted with two subcutaneous mini-pumps (Durect Corp).

[9] = e.g., provoking marked hyperlactemia followed by hyperglycemia; cited from earlier work
[10] = cited from earlier work
[11] = CSI (N = 47), Baseline (Day −1)
[12] = TID (N = 59), Baseline (Day −1)
[13] = pramlintide 180 μg s.c. TID, after 6 weeks
[14] = 16 weeks, least squares mean±SE
[15] = after 16 weeks, evaluable population
[16] = at 11 weeks, compared to controls
[17] = day 28, after amylin days 1-14 and vehicle days 15-28
[18] = rat amylin 100 μg/kg/d s.c. mini-pump, days 2-14, vs vehicle controls
[19] = amylin 100 μg/kg/day and/or sibutramine 3 mg/kg/day

Compound: CC[C@H](C)[C@H](NC(=O)[C@@H]1CCCN1C(=O)CNC(=O)[C@H](Cc1ccccc1)NC(=O)[C@H](CC(N)=O)NC(=O)[C@H](CC(N)=O)NC(=O)[C@H](CO)NC(=O)[C@H](CO)NC(=O)[C@H](Cc1c[nH]cn1)NC(=O)[C@@H](NC(=O)[C@H](CC(C)C)NC(=O)[C@H](Cc1ccccc1)NC(=O)[C@H](CC(N)=O)NC(=O)[C@H](C)NC(=O)[C@H](CC(C)C)NC(=O)[C@H](CCCNC(=N)N)NC(=O)[C@H](CCC(N)=O)NC(=O)[C@@H](NC(=O)[C@H](C)NC(=O)[C@@H]1CSSC[C@H](NC(=O)[C@@H](N)CCCCN)C(=O)N[C@@H](CC(N)=O)C(=O)N[C@@H]([C@@H](C)O)C(=O)N[C@@H](C)C(=O)N[C@@H]([C@@H](C)O)C(=O)N1)[C@@H](C)O)C(C)C)C(=O)N[C@@H](CC(C)C)C(=O)N1CCC[C@H]1C(=O)N1CCC[C@H]1C(=O)N[C@H](C(=O)N[C@@H](CC(N)=O)C(=O)N[C@H](C(=O)NCC(=O)N[C@@H](CO)C(=O)N[C@@H](CC(N)=O)C(=O)N[C@H](C(=O)N[C@@H](Cc1ccc(O)cc1)C(N)=O)[C@@H](C)O)C(C)C)[C@@H](C)O [Pramlintide, ^25,28,29Pro-h-amylin]
- reduction of mean total caloric intake compared with pooled placebo ([1]; CSI 50 μg/h, Day 43): ~7%
- reduction of mean total caloric intake compared with pooled placebo ([1]; CSI 50 μg/h, first day of treatment): approximately 22%
- subjects with total BES score >17 to <27 (Moderate) [1, 11]: (36.2) %
- subjects with total BES score ≦17 (Mild) [1, 11]: (51.1) %
- subjects with total BES score ≧27 (Severe) [1, 11]: (12.8) %
- subjects with total BES score >17 to <27 (Moderate) ([1]; CSI (N = 47), Day 42): (17.0) %
- subjects with total BES score ≦17 (Mild) ([1]; CSI (N = 47), Day 42): (74.5) %
- subjects with total BES score ≧27 (Severe) ([1]; CSI (N = 47), Day 42): (8.5) %
- subjects with total BES score >17 to <27 (Moderate) ([1]; CSI (N = 47), Day 72): (14.9) %
- subjects with total BES score ≦17 (Mild) ([1]; CSI (N = 47), Day 72): (63.8) %
- subjects with total BES score ≧27 (Severe) ([1]; CSI (N = 47), Day 72): (8.5) %
- subjects with total BES score >17 to <27 (Moderate) [1, 12]: (23.7) %
- subjects with total BES score ≦17 (Mild) [1, 12]: (64.4) %
- subjects with total BES score ≧27 (Severe) [1, 12]: (8.5) %
- subjects with total BES score ≦17 (Mild) ([1]; TID (N = 59), Baseline (Day −1), listed as pramlintide): 64.4%
- subjects with total BES score >17 to <27 (Moderate) ([1]; TID (N = 59), Day 42): (11.9) %
- subjects with total BES score ≦17 (Mild) ([1]; TID (N = 59), Day 42): (83.1) %
- subjects with total BES score ≧27 (Severe) ([1]; TID (N = 59), Day 42): (5.1) %
- subjects with total BES score ≦17 (Mild) ([1]; TID (N = 59), Day 42, listed as pramlintide): 83.1%
- subjects with total BES score >17 to <27 (Moderate) ([1]; TID (N = 59), Day 72): (13.6) %
- subjects with total BES score ≦17 (Mild) ([1]; TID (N = 59), Day 72): (76.3) %
- subjects with total BES score ≧27 (Severe) ([1]; TID (N = 59), Day 72): (5.1) %
- reduction of mean total caloric intake compared with pooled placebo ([1]; TID, Day 43): ~15%
- reduction of mean total caloric intake compared with pooled placebo ([1]; TID, first day of treatment): approximately 17%
- placebo-corrected reduction from baseline in mean BES score ([1]; after 6 weeks): −45±13%
- proportion of subjects shifting to a lower binge-eating severity category ([1]; after 6 weeks, placebo […]): 24.6%
- reductions from baseline in the total BES score after cessation ([1]; four weeks after cessation of treatment): no longer statistically significant
- placebo-corrected reduction from baseline in 24-hour food intake [1, 13]: -489 ± 183 kcal
- placebo-corrected reduction from baseline in weight [1, 13]: −2.2±0.5%
- placebo-corrected reduction in hip circumference [2, 14]: 2.69±0.82 cm
- placebo-corrected reduction in waist circumference [2, 14]: 2.691±1.08 cm
- percentage of subjects achieving >5% reduction in baseline body weight ([2]; Class I (BMI <35 kg/m^2), n 43, placebo 0%): 39.5%
- percentage of subjects achieving >5% reduction in baseline body weight ([2]; Class II (BMI ≧35 kg/m^2 to <40 kg/m^2), n 25, placebo 0%): 28.0%
- percentage of subjects achieving >5% reduction in baseline body weight ([2]; Class II (BMI ≧40 kg/m^2), n 29, placebo 5.0%): 20.7%
- placebo-corrected mean weight loss [2, 15]: 3.52 kg
- placebo-corrected mean weight loss, of initial body weight [2, 15]: 3.6%
- subjects who lost ≧5% of body weight ([2]; after 16 weeks, placebo 2%): 31%
- tendency to adsorb onto the glass [3]: does not have a tendency to adsorb onto the glass
- weight or weight gain [4]: reduce weight or weight gain

Compound: Rat amylin
- average sucrose to chow consumption ratio (as % of baseline) ([5]; rat amylin 300 μg/kg/d by osmotic pump, restraint-stressed rats, 4 days of sucrose re-introduction): prevents the increase in the average sucrose to chow consumption ratio
- sucrose intake ([5]; rat amylin 300 μg/kg/d, stressed and non-stressed rats, vs vehicle treated controls): decreases sucrose intake in both stressed and non-stressed conditions
- stress-induced decrease in chow intake and total kcals ([5]; rat amylin 300 μg/kg/d, treatment group vs control group): less pronounced in the treatment group
- 24 h energy expenditure, dark phase increase [6, 16]: 6.6%
- 24 h energy expenditure, light phase increase [6, 16]: 9.7%
- fat mass, change in percent of total mass ([6]; pre- vs post-treatment, MRI, vehicle 3.7±0.9): −3.6±1.0%
- lean tissue, change in percent of total mass ([6]; pre- vs post-treatment, MRI, vehicle −0.53±0.21, not significant): 0.08±0.23%
- percent total calories from low fat chow (main effect) ([6]; rat amylin 300 μg/kg/d, 11 weeks, vehicle 4.3±0.6): 12.2±3.2%
- body weight gain ([6]; rat amylin 300 μg/kg/d, 11 weeks, vehicle 126±10): 50 ± 11 g
- calories from low fat chow (main effect) ([6]; rat amylin 300 μg/kg/d, 11 weeks, vehicle 271±42): 633 ± 145 kcal
- calories from high fat chow over 11 weeks (FIG. 2) ([6]; rat amylin 300 μg/kg/d, 11 weeks, vehicle 6315±111, mean±SEM): 5309 ± 202 kcal
- percent of body fat [7, 17]: lower percent of body fat
- percent of lean body mass [7, 17]: higher percent of lean body mass
- body weight [7, 18]: significantly decreased
- cumulative food intake [7, 18]: significantly decreased
- change in body weight (vehicle-corrected) ([8]; amylin 100 μg/kg/day and/or sibutramine 3 mg/kg/day by mini-pumps): approximately 5%
- fat mass [8, 19]: Fat mass loss was also evident
- lean (protein) mass [8, 19]: increased

Compound: ^18Arg^25,28Pro-h-amylin (KCNTATCATQRLANFLVRSSNNFGPILPSTNVGSNTY)
- amylin activity in vivo [9]: show amylin activity in vivo
- solubility and stability characteristics compared to human amylin [10]: more desirable solubility and stability characteristics

Compound: ^25Pro^26Val^28,29Pro-h-amylin (KCNTATCATQRLANFLVHSSNNFGPVLPPTNVGSNTY)
- solubility and stability characteristics compared to human amylin [10]: more desirable solubility and stability characteristics
